Reference: patent publication US12721821B2, “Plant essential oil amino acid composition and preparation method therefor” (COCRYSTAL TECHNOLOGY (JIAXING) CO., LTD, priority 2021, dated 2026)

Assay: Vapor pressure from thermogravimetric analysis (TGA), kept at 80° C. for 100 minutes
Assay type: physicochemical
Details: calculated from weight loss rate
Experimental: For thermogravimetric analysis (TGA) method, instrument model: Netzsch TG 209F3 thermogravimetric analyzer detection, temperature: 80° C. for 100 minutes, purge gas: 25 mL/min.
Thymol and/or carvacrol and L-proline and/or sarcosine were added to a ball mill according to the compositions shown in Table 2, and vibrated at a vibrating frequency of 30 Hz for a vibrating time of 20 minutes to obtain the compositions. The compositions were subjected to thermogravimetric analysis (TGA), kept at 80° C. for 100 minutes, and the vapor pressure of thymol and/or carvacrol and the compositions thereof were calculated according to the formula:
[formula] • wherein m is the mass of the sample at time t, −dm/dt is the weight loss rate per unit area, p is the saturated vapor pressure, α is the vaporization constant, T is the absolute temperature, R is the gas constant, and M is the molecule mass of the evaporated substance. Under vacuum condition, α=1. α can be considered as a constant when a protective gas is present.

SMILES	vapor pressure (Pa) at 80° C. [Pa]
Cc1ccc(C(C)C)cc1O [carvacrol]	242
Cc1ccc(C(C)C)c(O)c1 [thymol]	333
